Laboratory results from patent US20250276964A1 (Novartis AG, priority 2021, published 2025).

Target: T1, WIZ (Homo sapiens, UniProt O95785+Q96SW2)
T1 construct: expressed in transfected cells
Test: Quantification of WIZ protein levels in HiBit tag fusion protein assay (WIZ HiBit assay in 293T cells)
Type: cell-based
Settings: for Dmax at 25 µM / remaining activity at 25 µM: HEK-293T; for Dmax at 25 µM / % degradation of WIZ (100-Amax): 100 minus Amax at 25 uM; for Dmax at 25 µM: read-out: % degradation of WIZ (100-Amax); for remaining activity at 25 µM / WIZ Amax: DMSO-normalized, curve-fitted percentage of WIZ-HiBit remaining at 25 uM; for remaining activity at 25 µM: read-out: WIZ Amax; for DC50: WIZ HiBit assay in 293T cells, 10-point, 5-fold dilution, highest concentration 25 μM, about 18 hours, read-out: WIZ AC50
Method in brief: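 293T cells stably carrying single-copy HiBit-WIZ (HSVTK promoter) treated ~18 h at 37 °C with 10-point, 5-fold dilutions, top 25 μM. Lytic HiBit luminescence read; Amax is DMSO-normalised, curve-fitted % WIZ-HiBit remaining at 25 uM.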

T1 sequence (O95785 whole entry): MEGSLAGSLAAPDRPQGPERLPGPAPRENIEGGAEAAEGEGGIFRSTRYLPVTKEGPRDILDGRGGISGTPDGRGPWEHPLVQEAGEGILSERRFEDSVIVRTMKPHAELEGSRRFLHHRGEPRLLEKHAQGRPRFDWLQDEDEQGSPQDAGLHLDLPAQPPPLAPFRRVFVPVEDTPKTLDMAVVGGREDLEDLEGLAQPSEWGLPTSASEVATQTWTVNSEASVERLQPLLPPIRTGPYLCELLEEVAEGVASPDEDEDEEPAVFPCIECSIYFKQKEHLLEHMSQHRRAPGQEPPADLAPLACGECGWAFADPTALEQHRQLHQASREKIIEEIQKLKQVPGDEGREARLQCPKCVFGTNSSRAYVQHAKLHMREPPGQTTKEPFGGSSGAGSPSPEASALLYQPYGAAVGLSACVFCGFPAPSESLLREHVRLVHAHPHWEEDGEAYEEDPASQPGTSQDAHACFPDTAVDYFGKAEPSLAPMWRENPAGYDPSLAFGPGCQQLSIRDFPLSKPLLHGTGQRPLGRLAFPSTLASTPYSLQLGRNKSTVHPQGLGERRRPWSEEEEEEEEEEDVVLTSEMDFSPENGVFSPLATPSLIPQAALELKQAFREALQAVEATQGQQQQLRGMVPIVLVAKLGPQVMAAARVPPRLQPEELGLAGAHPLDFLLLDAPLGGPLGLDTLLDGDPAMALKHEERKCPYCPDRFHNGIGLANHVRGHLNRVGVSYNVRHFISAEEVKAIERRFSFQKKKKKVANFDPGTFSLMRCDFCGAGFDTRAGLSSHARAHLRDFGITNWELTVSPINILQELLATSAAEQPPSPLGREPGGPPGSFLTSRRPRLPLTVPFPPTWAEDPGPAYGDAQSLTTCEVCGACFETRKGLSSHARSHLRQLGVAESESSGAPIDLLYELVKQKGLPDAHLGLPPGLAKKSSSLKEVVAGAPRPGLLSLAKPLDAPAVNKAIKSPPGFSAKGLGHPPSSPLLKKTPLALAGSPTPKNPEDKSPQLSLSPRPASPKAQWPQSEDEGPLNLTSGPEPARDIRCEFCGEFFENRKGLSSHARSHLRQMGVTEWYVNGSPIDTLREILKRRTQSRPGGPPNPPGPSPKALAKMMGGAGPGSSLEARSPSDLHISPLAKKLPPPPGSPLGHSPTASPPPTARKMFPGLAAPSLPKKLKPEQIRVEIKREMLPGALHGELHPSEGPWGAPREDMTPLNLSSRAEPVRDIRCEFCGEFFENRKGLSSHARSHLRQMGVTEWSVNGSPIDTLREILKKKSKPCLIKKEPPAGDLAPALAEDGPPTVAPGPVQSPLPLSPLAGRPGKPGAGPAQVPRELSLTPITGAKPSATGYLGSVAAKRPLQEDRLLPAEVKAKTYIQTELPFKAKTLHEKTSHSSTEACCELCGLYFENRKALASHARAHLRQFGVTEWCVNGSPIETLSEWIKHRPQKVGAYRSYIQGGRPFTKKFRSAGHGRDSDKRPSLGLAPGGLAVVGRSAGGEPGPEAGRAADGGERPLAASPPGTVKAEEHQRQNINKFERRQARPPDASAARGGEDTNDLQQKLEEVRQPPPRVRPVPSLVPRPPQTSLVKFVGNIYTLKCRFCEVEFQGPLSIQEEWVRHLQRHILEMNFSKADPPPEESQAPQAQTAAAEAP
T1 sequence (Q96SW2 whole entry): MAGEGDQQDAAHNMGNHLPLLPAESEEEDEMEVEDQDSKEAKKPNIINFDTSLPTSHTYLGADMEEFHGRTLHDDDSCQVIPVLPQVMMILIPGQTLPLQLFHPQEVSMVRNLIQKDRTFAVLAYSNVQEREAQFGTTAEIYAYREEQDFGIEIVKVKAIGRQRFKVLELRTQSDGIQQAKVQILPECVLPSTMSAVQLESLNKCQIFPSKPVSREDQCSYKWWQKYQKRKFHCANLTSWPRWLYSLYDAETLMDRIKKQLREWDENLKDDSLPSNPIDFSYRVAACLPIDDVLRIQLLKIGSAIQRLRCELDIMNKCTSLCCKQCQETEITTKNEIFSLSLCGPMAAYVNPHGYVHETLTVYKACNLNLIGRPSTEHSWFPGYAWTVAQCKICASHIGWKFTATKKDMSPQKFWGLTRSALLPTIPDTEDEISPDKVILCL
T1 sequence (Q16531 whole entry partner): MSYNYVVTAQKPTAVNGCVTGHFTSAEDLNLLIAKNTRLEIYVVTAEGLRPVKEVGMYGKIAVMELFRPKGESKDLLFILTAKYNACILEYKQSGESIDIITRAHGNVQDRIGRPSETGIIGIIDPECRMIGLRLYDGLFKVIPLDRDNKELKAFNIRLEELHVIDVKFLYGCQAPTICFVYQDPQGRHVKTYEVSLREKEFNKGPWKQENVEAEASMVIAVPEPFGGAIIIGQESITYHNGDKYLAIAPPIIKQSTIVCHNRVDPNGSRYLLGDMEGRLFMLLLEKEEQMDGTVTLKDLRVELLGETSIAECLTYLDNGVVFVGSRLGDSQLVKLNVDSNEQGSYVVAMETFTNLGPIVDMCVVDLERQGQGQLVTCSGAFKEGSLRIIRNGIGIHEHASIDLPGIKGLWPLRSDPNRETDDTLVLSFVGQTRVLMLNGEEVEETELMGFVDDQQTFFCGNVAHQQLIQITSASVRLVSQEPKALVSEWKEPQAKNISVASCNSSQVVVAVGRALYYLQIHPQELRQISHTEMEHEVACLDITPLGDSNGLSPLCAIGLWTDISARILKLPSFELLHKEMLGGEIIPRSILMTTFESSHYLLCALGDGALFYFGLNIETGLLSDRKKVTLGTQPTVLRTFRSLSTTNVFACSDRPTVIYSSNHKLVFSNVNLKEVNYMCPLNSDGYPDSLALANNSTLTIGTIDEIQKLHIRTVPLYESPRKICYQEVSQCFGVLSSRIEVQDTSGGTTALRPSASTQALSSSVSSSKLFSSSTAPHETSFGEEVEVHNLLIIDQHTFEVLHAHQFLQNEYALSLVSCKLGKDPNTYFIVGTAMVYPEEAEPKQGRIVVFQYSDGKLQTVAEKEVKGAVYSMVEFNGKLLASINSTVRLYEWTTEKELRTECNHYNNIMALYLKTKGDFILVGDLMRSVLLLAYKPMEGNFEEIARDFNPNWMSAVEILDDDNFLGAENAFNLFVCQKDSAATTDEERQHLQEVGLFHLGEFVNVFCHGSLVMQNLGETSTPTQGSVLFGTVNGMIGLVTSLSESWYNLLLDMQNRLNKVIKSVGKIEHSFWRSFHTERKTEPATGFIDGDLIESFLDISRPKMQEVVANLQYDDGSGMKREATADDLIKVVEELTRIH

Row | Compound | Dmax at 25 µM [%] | remaining activity at 25 µM [%] | DC50 [nM] | % degradation of WIZ (100-Amax) [%] | WIZ Amax [%]
1 | CC(C)(C)OC(=O)N1CCC(Cc2ccc3onc(N4CCC(=O)NC4=O)c3c2)CC1 [Example 1a, tert-butyl 4-((3-(2,4-dioxotetrahydropyrimidin-1(2H)-yl)benzo[d]isoxazol-5-yl)methyl)piperidine-1-carboxylate] | 85 | 15 | 160 |  | 
2 | CN1C[C@H]2C[C@@H]1CN2Cc1ccc2onc(N3CCC(=O)NC3=O)c2c1 [Example 97] | 84 | 16 | 192 |  | 
3 | C[C@@H]1CN(C)C[C@H](C)N1Cc1ccc2onc(N3CCC(=O)NC3=O)c2c1 [Example 108, 1-(5-(((2R,6S)-2,4,6-trimethylpiperazin-1-yl)methyl)benzo[d]isoxazol-3-yl)dihydropyrimidine-2,4(1H,3H)-dione] | 69 | 31 | 577 |  | 
4 | CC(C)(C)OC(=O)N1CCCC(Cc2ccc3onc(N4CCC(=O)NC4=O)c3c2)C1 (stereo not drawn) [Example 42, tert-butyl 3-((3-(2,4-dioxotetrahydropyrimidin-1 (2H)-yl)benzo[d]isoxazol-5-yl)methyl)piperidine-1-carboxylate] | 82 | 18 | 1010 |  | 
5 | CC(C)(C)OC(=O)N1C[C@@H]2C[C@H]1CN2Cc1ccc2onc(N3CCC(=O)NC3=O)c2c1 [Example 93, tert-butyl (1S,4S)-5-((3-(2,4-dioxotetrahydropyrimidin-1(2H)-yl)benzo[d]isoxazol-5-yl)methyl)-2,5-diazabicyclo[2.2.1]heptane-2-carboxylate] | 61 | 39 | 2180 |  | 
6 | O=C1CCN(c2noc3ccc(CC4CCCN(CC5CCCCC5)C4)cc23)C(=O)N1 (stereo not drawn) [Example 44, 1-(5-((1-(cyclohexylmethyl)piperidin-3-yl)methyl)benzo[d]isoxazol-3-yl)dihydropyrimidine-2,4(1H,3H)-dione] | 77 | 23 | 475 |  | 
7 | C[C@H]1CN(Cc2ccc3onc(N4CCC(=O)NC4=O)c3c2)CCN1CC1CCOCC1 [Example 31, (S)-1-(5-((3-methyl-4-((tetrahydro-2H-pyran-4-yl)methyl)piperazin-1-yl)methyl)benzo[d]isoxazol-3-yl)dihydropyrimidine-2,4(1H,3H)-dione] | 91 | 9 | 6.9 |  | 
8 | O=C1CCN(c2noc3ccc(CN4CCN(C5CCOCC5)CC4)cc23)C(=O)N1 [Example 81, 1-(5-((4-(tetrahydro-2H-pyran-4-yl)piperazin-1-yl)methyl)benzo[d]isoxazol-3-yl)dihydropyrimidine-2,4(1H,3H)-dione] | 90 | 10 | 26 |  | 
9 | CN1CC2CCC1CN2Cc1ccc2onc(N3CCC(=O)NC3=O)c2c1 (single isomer, unassigned) [Example 124, 1-(5-((5-methyl-2,5-diazabicyclo[2.2.2]octan-2-yl)methyl)benzo[d]isoxazol-3-yl)dihydropyrimidine-2,4(1H,3H)-dione] |  |  | 520 | 85 | 15
10 | CC(C)CN1CCN(Cc2ccc3onc(N4CCC(=O)NC4=O)c3c2)[C@H](C)C1 [Example 33, (R)-1-(5-((4-isobutyl-2-methylpiperazin-1-yl)methyl)benzo[d]isoxazol-3-yl)dihydropyrimidine-2,4(1H,3H)-dione] | 88 | 12 | 32 |  | 
11 | CC(C)CN1CCN(Cc2ccc3onc(N4CCC(=O)NC4=O)c3c2)CC1 [Example 24, 1-(5-((4-isobutylpiperazin-1-yl)methyl)benzo[d]isoxazol-3-yl)dihydropyrimidine-2,4(1H,3H)-dione] | 89 | 11 | 37 |  | 
12 | CS(=O)(=O)N1CC2CCC1CN2Cc1ccc2onc(N3CCC(=O)NC3=O)c2c1 (single isomer, unassigned) [Example 126, 1-(5-((5-(methylsulfonyl)-2,5-diazabicyclo[2.2.2]octan-2-yl)methyl)benzo[d]isoxazol-3-yl)dihydropyrimidine-2,4(1H,3H)-dione] |  |  | 134 | 83 | 17
13 | CC(C)C(=O)N1CCN(Cc2ccc3onc(N4CCC(=O)NC4=O)c3c2)CC1 [Example 85, 1-(5-((4-isobutyrylpiperazin-1-yl)methyl)benzo[d]isoxazol-3-yl)dihydropyrimidine-2,4(1H,3H)-dione] | 82 | 18 | 218 |  | 
14 | CC[C@@H]1CN(C)CCN1Cc1ccc2onc(N3CCC(=O)NC3=O)c2c1 [Example 87, (R)-1-(5-((2-ethyl-4-methylpiperazin-1-yl)methyl)benzo[d]isoxazol-3-yl)dihydropyrimidine-2,4(1H,3H)-dione] | 83 | 17 | 6 |  | 
15 | CC(C)[C@H]1CN(Cc2ccc3onc(N4CCC(=O)NC4=O)c3c2)CCN1C [Example 37, (S)-1-(5-((3-isopropyl-4-methylpiperazin-1-yl)methyl)benzo[d]isoxazol-3-yl)dihydropyrimidine-2,4(1H,3H)-dione] | 80 | 20 | 260 |  | 
16 | Cc1ccccc1CN1CCC(Cc2ccc3onc(N4CCC(=O)NC4=O)c3c2)CC1 [Example 12, 1-(5-((1-(2-methylbenzyl)piperidin-4-yl)methyl)benzo[d]isoxazol-3-yl)dihydropyrimidine-2,4(1H,3H)-dione] | 90 | 10 | 44 |  | 
17 | C[C@H]1CN(Cc2ccc3onc(N4CCC(=O)NC4=O)c3c2)CCN1CC1CCCCC1 [Example 28, (S)-1-(5-((4-(cyclohexylmethyl)-3-methylpiperazin-1-yl)methyl)benzo[d]isoxazol-3-yl)dihydropyrimidine-2,4(1H,3H)-dione] | 90 | 10 | 5.4 |  | 
18 | C[C@@H]1CN(C(=O)N2CCCC2)CCN1Cc1ccc2onc(N3CCC(=O)NC3=O)c2c1 [Example 75, (R)-1-(5-((2-methyl-4-(pyrrolidine-1-carbonyl)piperazin-1-yl)methyl)benzo[d]isoxazol-3-yl)dihydropyrimidine-2,4(1H,3H)-dione] | 78 | 22 | 132 |  | 
19 | CS(=O)(=O)N1CCN(Cc2ccc3onc(N4CCC(=O)NC4=O)c3c2)CC1 [Example 83, 1-(5-((4-(methylsulfonyl)piperazin-1-yl)methyl)benzo[d]isoxazol-3-yl)dihydropyrimidine-2,4(1H,3H)-dione] | 83 | 17 | 93 |  | 
20 | CN1C[C@@H]2C[C@H]1CN2Cc1ccc2onc(N3CCC(=O)NC3=O)c2c1 [Example 94] | 76 | 24 | 364 |  | 
21 | CC(C)N1CCN(Cc2ccc3onc(N4CCC(=O)NC4=O)c3c2)CC1 [Example 79, 1-(5-((4-isopropylpiperazin-1-yl)methyl)benzo[d]isoxazol-3-yl)dihydropyrimidine-2,4(1H,3H)-dione] | 92 | 8 | 16 |  | 
22 | C[C@H]1CN(Cc2ccc3onc(N4CCC(=O)NC4=O)c3c2)CCN1C1COC1 [Example 82, (S)-1-(5-((3-methyl-4-(oxetan-3-yl)piperazin-1-yl)methyl)benzo[d]isoxazol-3-yl)dihydropyrimidine-2,4(1H,3H)-dione] | 95 | 5 | 77 |  | 
23 | CN1CCN(Cc2ccc3onc(N4CCC(=O)NC4=O)c3c2)CC1(C)C [Example 92, 1-(5-((3,3,4-trimethylpiperazin-1-yl)methyl)benzo[d]isoxazol-3-yl)dihydropyrimidine-2,4(1H,3H)-dione] | 82 | 18 | 4 |  | 
24 | O=C1CCN(c2noc3ccc(CC4CCN(Cc5cccnc5)CC4)cc23)C(=O)N1 [Example 4, 1-(5-((1-(pyridin-3-ylmethyl)piperidin-4-yl)methyl)benzo[d]isoxazol-3-yl)dihydropyrimidine-2,4(1H,3H)-dione] | 92 | 8 | 33 |  | 
25 | C[C@@H]1CN(CC2COC2)CCN1Cc1ccc2onc(N3CCC(=O)NC3=O)c2c1 [Example 68, (R)-1-(5-((2-methyl-4-(oxetan-3-ylmethyl)piperazin-1-yl)methyl)benzo[d]isoxazol-3-yl)dihydropyrimidine-2,4(1H,3H)-dione] | 83 | 17 | 40 |  | 
26 | O=C1CCN(c2noc3ccc(CN4CCN5C(=O)COC[C@H]5C4)cc23)C(=O)N1 [Example 116, (R)-1-(5-((4-oxohexahydropyrazino[2,1-c][1,4]oxazin-8(1H)-yl)methyl)benzo[d]isoxazol-3-yl)dihydropyrimidine-2,4(1H,3H)-dione] | 78 | 22 | 193 |  | 
27 | O=C1CCN(c2noc3ccc(CC4CCN(CC(F)(F)F)CC4)cc23)C(=O)N1 [Example 13, 1-(5-((1-(2,2,2-trifluoroethyl)piperidin-4-yl)methyl)benzo[d]isoxazol-3-yl)dihydropyrimidine-2,4(1H,3H)-dione] | 89 | 11 | 39 |  | 
28 | O=C1CCN(c2noc3ccc(CN4CCN(Cc5cccc(F)c5)CC4)cc23)C(=O)N1 [Example 27, 1-(5-((4-(3-fluorobenzyl)piperazin-1-yl)methyl)benzo[d]isoxazol-3-yl)dihydropyrimidine-2,4(1H,3H)-dione] | 86 | 14 | 210 |  | 
